Results on 3 molecules are retold here after publication PMC8489181 (Clinical cancer research : an official journal of the …, 2020).

Data set [1] relates to postmenopausal women with HR+, HER2− advanced breast cancer. The data set is described as follows: Safety and tolerability. Type of data set: in vivo, human.
In data set [2] the test system is postmenopausal women with ER+, HER2− ABC. In words: Dose-limiting toxicities in cycle 1. It counts as in vivo.
A short description of data set [3]: Everolimus whole blood pharmacokinetics. It counts as in vivo, human. The conditions noted are these: for AUC(0-t): AUC0–24h at steady state; for AUC(0-t) / Cmax: everolimus 2.5 mg; for Cmax: geometric mean Cmax at steady state.
For data set [4] the following is noted: ribociclib CYP3A4 inhibitor, everolimus CYP3A4 substrate; cited from earlier work.
The nature of data set [5]: Ribociclib plasma pharmacokinetics. Type of data set: in vivo, human. Conditions: for AUC(0-t): geometric mean AUC0–24h at steady state; for half-life: geometric mean effective half-life based on drug accumulation.
The mark [6] stands for this setting: dose-escalation group 1 (fasting).
Setting [7] is: taken with food, ribociclib 3 weeks on/1 week off in a 4-week cycle.
Setting [8] is: female, human, whole blood, oral, dose-escalation group 1.
The mark [9] stands for this setting: female, human, whole blood, oral, dose-escalation group 2.
Setting [10] is: dose-expansion group 1 (CDK4/6i-naïve).
The mark [11] stands for this setting: dose-expansion group 2 (CDK4/6i-refractory).
Where [12] appears, read: female, human, plasma, oral, dose-escalation group 1.
The mark [13] stands for this setting: female, human, plasma, oral, dose-escalation group 2.

In general, Tmax refers to the time at which the peak concentration occurs. The term AUC(0-t) denotes the area under the concentration-time curve up to a stated or last time point. The low end stands for less exposure, the high end for more exposure. For orientation: Cmax means the peak of the concentration-time curve. With `CO[C@H]1C[C@@H]2CC[C@@H](C)[C@@](O)(O2)C(=O)C(=O)N2CCCC[C@H]2C(=O)O[C@H]([C@H](C)C[C@@H]2CC[C@@H](OCCO)[C@H](OC)C2)CC(=O)[C@H](C)/C=C(\C)[C@@H](O)[C@@H](OC)C(=O)[C@H](C)C[C@H](C)/C=C/C=C/C=C/1C` [everolimus], in data set [1] (setting [6]), the “patients requiring ≥1 dose interruption” value was determined as 70.7% and the “patients requiring ≥1 dose reduction” value is 2.4%. In data set [1] (dose-escalation group 2 (fed)), the “patients requiring ≥1 dose interruption” value is 83.3% and the “patients requiring ≥1 dose reduction” value is recorded as 4.8%. In addition, the dose reductions result in data set [1] (dose-expansion phase) is on record as “no dose reductions”. Further, the “recommended phase II dose (RP2D) in the triplet” value (“recommended phase II dose (RP2D)” below) in data set [2] (setting [7]) came out at 2.5 mg once daily. Also, in data set [3] (at the RP2D), the “AUC0–24h” value turned out to be 0.303 µg·h/mL. For the same molecule, the “everolimus exposure increase in the presence of ribociclib (dose-dependent DDI)” value in data set [3] (dose-escalation phase) is recorded as “two- to fourfold”. Besides, the Tmax in data set [3] (female, human, whole blood, oral) was 1 to 2 h. Besides, in data set [3] (setting [8]), the AUC(0-t) lay within 0.166 to 0.307 µg·h/mL and the Cmax was in the range of 0.0197 to 0.0303 µg/mL. Also, in data set [3] (setting [9]), the AUC(0-t) is 0.117 to 0.316 µg·h/mL and the Cmax was in the range of 0.00825 to 0.0294 µg/mL. The “expected increase of everolimus exposure by treatment with ribociclib” value in data set [4] is recorded as “approximately 3.5 fold”.

With `C=C1C[C@@H]2[C@H](CC[C@]3(C)C(=O)CC[C@@H]23)[C@@]2(C)C=CC(=O)C=C12` [exemestane], the “patients requiring ≥1 dose interruption” value in data set [1] (setting [6]) turned out to be 61%; in data set [1] (dose-escalation group 2 (fed)), 71.4%. Moreover, the “recommended phase II dose (RP2D)” value in data set [2] (female, human, in vivo, 28 days) is listed as 25 mg once daily.

One may read the half-life as the time in which the quantity being followed falls by half. With `CN(C)C(=O)c1cc2cnc(Nc3ccc(N4CCNCC4)cn3)nc2n1C1CCCC1` [ribociclib], the “patients requiring ≥1 dose interruption” value in data set [1] (setting [6]) was 68.3%; in data set [1] (dose-escalation group 2 (fed)) it was 80.9%; in data set [1] (setting [10]) it was 87.5%; in data set [1] (setting [11]), 82.4%. Moreover, the “patients requiring ≥1 dose reduction” value turned out to be 22.0% in data set [1] (setting [6]), 33.3% in data set [1] (dose-escalation group 2 (fed)), 43.8% in data set [1] (setting [10]) and 23.5% in data set [1] (setting [11]). Also, the “recommended phase II dose (RP2D)” value in data set [2] (setting [7]) was found to be 300 mg once daily. Also, the time of peak concentration (Tmax) in data set [5] (female, human, plasma, oral) was in the range of 1 to 4 h. The maximum concentration (Cmax) was 0.773 µg/mL in data set [5] (female, human, plasma, oral, Cmax at steady state, at the RP2D); 0.413 to 1 µg/mL in data set [5] (female, human, plasma, oral, geometric mean Cmax at steady state, dose-escalation group 1, 200–350 mg dose); 0.289 to 0.955 µg/mL in data set [5] (female, human, plasma, oral, geometric mean Cmax at steady state, dose-escalation group 2). For the same molecule, the results for the AUC(0-t) in data set [5] (setting [12]) and in data set [5] (setting [13]) were 4.57 to 11.1 µg·h/mL and 3.97 to 13.4 µg·h/mL, respectively. Moreover, the half-life in data set [5] (setting [12]) lay in the range of 24.9 to 47.6 h; in data set [5] (setting [13]), 29.5 to 49.9 h. The “mean steady-state exposure in the presence of food” value in data set [5] (same dose level, fed versus fasted) is on record as “slightly lower”. Moreover, the “DDI in the presence of everolimus and exemestane” value in data set [5] (triplet combination, versus single-agent ribociclib exposure) is “No DDIs were observed”.
